# Experimental data reported in PubChem BioAssay AID1845215 (Molecular Pharmacology Branch, DTP, NCI, 2023).
# pIC50: −log10 of the molar value. Where “and” joins values, the source holds several entries; their conditions need not be identical. Identical values can stand only once.
# Test system: SW 1271 complex tumor spheroid viability
# Assay: Anticancer human tumor SW 1271 cell line growth inhibition;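 further: spheroids exposed to agents for seven days before readout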;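 on viability, T/C: percent of DMSO vehicle control luminescence so 100% = vehicle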
# Settings: for viability, T/C: stronger effect = lower value
# Text: Multicellular complex tumor spheroid response to DNA repair inhibitors in combination with DNA-damaging drugs
# This study explores the anticancer activities of DNA-damaging drugs and inhibitors of DNA damage repair, both as single agents and in combinations. Complex tumor spheroids comprised of malignant cells, endothelial cells and mesenchymal stem cells served as an in vitro model for human solid tumors. This model system incorporates physiologically relevant features and patient-derived or established malignant cell lines with clinically relevant genetic alterations from many tumor types. Twenty-six patient-derived or established malignant cell lines were evaluated representing sarcoma, melanoma, small cell lung cancer (SCLC), non-small cell lung cancer (NSCLC), as well as bladder, ovarian and pancreatic cancers. The concentration ranges selected for each drug and investigational agent were based upon clinically achievable concentrations if the clinical Cmax of the agent was known.
# Compounds. The drugs and compounds olaparib (NSC753686), talazoparib (NSC767125), berzosertib (NSC777718), elimusertib (NSC800525), nedisertib (NSC802822), VX-984 (NSC792969), AZD-1390 (NSC803789), temozolomide (NSC362856), topotecan (NSC609699), trabectedin (NSC813783), staurosporine (NSC755774), and gemcitabine (NSC613327) were obtained from the National Cancer Institute (NCI) Developmental Therapeutics Program Chemical Repository. The FDA-approved anticancer drug set is available from the Developmental Therapeutics Program at https://dtp.cancer.gov/organization/dscb/obtaining/available_plates.htm. […] The stock solutions were prepared in dimethyl sulfoxide (DMSO, Sigma-Aldrich, St. Louis, MO, cat. D2650) at 400-fold the tested concentration and stored at -70 degrees C. Prior to their use, the stock solutions were diluted in fresh medium and the final DMSO concentration in the assay was 0.25% (v/v). All drugs and investigational agents were tested over a range starting from a high concentration at or near the clinical Cmax and decreasing in half-log increments. If the clinical Cmax for an agent had not been determined, the highest concentration tested was 10 microM.
# Cell Lines. The patient-derived cancer cell (PDC) lines: 156681-154-R-J1-PDC, 283228-195-R-J1-PDC, 287954-098-R-J1-PDC, 292921-168-R-J2-PDC, 349418-098-R-PDC, 425362-245-T-J1-PDC, 556581-035-R-J1-PDC, and BL0293-F563-PDC were received from the NCI Patient-Derived Models Repository (PDMR, https://pdmr.cancer.gov). The established cell lines HS-SY-2 (RRID:CVCL_8719), MPNST, and SYO-1 (RRID:CVCL_7146) were obtained from the Sloan Kettering Institute. The alveolar soft parts sarcoma cell line ASPS-1 (RRID:CVCL_S738) was established at the NCI and grown from internal seed stocks. The following established cell lines were purchased from the American Type Culture Collection (ATCC, Manassas, VA): G-401 (ATCC, cat. CRL-1441, RRID:CVCL_0270), SW982 (ATCC, cat. HTB-93, RRID:CVCL_1734), VA-ES-BJ (ATCC, cat. CRL-2138, RRID:CVCL_1785), NCI-H719 (ATCC, cat. CRL-5837, RRID:CVCL_1582), NCI-H196 (ATCC, cat. CRL-5823, RRID:CVCL_1509), NCI-H841 (ATCC, cat. CRL-5845, RRID:CVCL_1595), NCI-H1618 (ATCC, cat. CRL-5879, RRID:CVCL_1480), NCI-H1876 (ATCC, cat. CRL-5902, RRID:CVCL_1503), DMS 114 (ATCC, cat. CRL-2066; RRID:CVCL_1174), NCI-H211 (ATCC, cat. CRL-5824; RRID:CVCL_1529), and SW 1271 (ATCC, cat. CRL-2177, RRID:CVCL_1716). The small cell lung cancer cell line COR-L88 was purchased from Sigma-Aldrich (cat. 92031917-1VL, RRID:CVCL_1141). The non-small cell lung cancer cell lines NCI-H226 (RRID:CVCL_1544) and NCI-H322M (RRID:CVCL_1557) were established at the NCI and grown from internal seed stocks. Pooled donor human umbilical vein endothelial cells (HUVEC, Lonza, cat. CC-2519) and human mesenchymal stem cells (hMSC, Lonza, cat. PT-2501) were purchased from Lonza (Walkersville, MD).
# Cell Culture. All cells were maintained in an incubator at 37 degrees C and 5% CO2 with 95% humidity. […]
structure (smiles),measurement,setting,value
CC(C)n1c(=O)n(C)c2cnc3cc(F)c(-c4ccc(OCCCN5CCCCC5)nc4)cc3c21 + Cn1nnc2c(C(N)=O)ncn2c1=O,pIC50,"curve of first compound, second compound 1 µM",< 5.00
same,pIC50,"curve of first compound, second compound 3.16 µM",< 5.00
same,pIC50,"curve of first compound, second compound 10 µM",5.13
same,pIC50,"curve of first compound, second compound 31.6 µM",5.31
same,pIC50,"curve of first compound, second compound 100 µM",5.98
same,"viability, T/C","second compound 1 µM, first compound 0.0316 µM",99.6%
same,"viability, T/C","second compound 1 µM, first compound 0.1 µM",90.9%
same,"viability, T/C","second compound 1 µM, first compound 0.316 µM",93.2%
same,"viability, T/C","second compound 1 µM, first compound 1 µM",101%
same,"viability, T/C","second compound 1 µM, first compound 3.16 µM",99.6%
same,"viability, T/C","second compound 1 µM, first compound 10 µM",54.7%
same,"viability, T/C","second compound 3.16 µM, first compound 0.0316 µM",101%
same,"viability, T/C","second compound 3.16 µM, first compound 0.1 µM",92.5%
same,"viability, T/C","second compound 3.16 µM, first compound 0.316 µM",98.8%
same,"viability, T/C","second compound 3.16 µM, first compound 1 µM",102%
same,"viability, T/C","second compound 3.16 µM, first compound 3.16 µM",88.4%
same,"viability, T/C","second compound 3.16 µM, first compound 10 µM",50.9%
same,"viability, T/C","second compound 10 µM, first compound 0.0316 µM",87.1%
same,"viability, T/C","second compound 10 µM, first compound 0.1 µM",97.7%
same,"viability, T/C","second compound 10 µM, first compound 0.316 µM",94.3%
same,"viability, T/C","second compound 10 µM, first compound 1 µM",79.9%
same,"viability, T/C","second compound 10 µM, first compound 3.16 µM",75.6%
same,"viability, T/C","second compound 10 µM, first compound 10 µM",41.6%
same,"viability, T/C","second compound 31.6 µM, first compound 0.0316 µM",93%
same,"viability, T/C","second compound 31.6 µM, first compound 0.1 µM",84.5%
same,"viability, T/C","second compound 31.6 µM, first compound 0.316 µM",86.1%
same,"viability, T/C","second compound 31.6 µM, first compound 1 µM",76.8%
same,"viability, T/C","second compound 31.6 µM, first compound 3.16 µM",63.5%
same,"viability, T/C","second compound 31.6 µM, first compound 10 µM",29.5%
same,"viability, T/C","second compound 100 µM, first compound 0.0316 µM",70.5%
same,"viability, T/C","second compound 100 µM, first compound 0.1 µM",69.6%
same,"viability, T/C","second compound 100 µM, first compound 0.316 µM",64.2%
same,"viability, T/C","second compound 100 µM, first compound 1 µM",51.5%
same,"viability, T/C","second compound 100 µM, first compound 3.16 µM",31%
same,"viability, T/C","second compound 100 µM, first compound 10 µM",24.9%
[2H]c1nc(C)nc([2H])c1-c1cc(NC[C@@H](C)c2cccc3c(C(=O)NC)ccnc23)ncn1,"viability, T/C",compound 0.0316 µM,96.9% and 105% and 108%
same,"viability, T/C",compound 0.1 µM,98.7% and 104% and 106%
same,"viability, T/C",compound 0.316 µM,101% and 95.6% and 96.8%
same,"viability, T/C",compound 1 µM,104% (2×) and 99.2%
same,"viability, T/C",compound 3.16 µM,98% and 96.2% and 104%
same,"viability, T/C",compound 10 µM,90.8% and 102% and 96.7%
same,pIC50,curve of compound,< 5.00
COc1cc(C)[nH]c(=O)c1CN1CCc2c(Cl)cc(C(OC)C3COC3)c(Cl)c2C1=O (stereo not drawn),"viability, T/C",compound 0.0316 µM,98.5% and 98.1% and 104%
same,"viability, T/C",compound 0.1 µM,101% and 92.7% and 98.5%
same,"viability, T/C",compound 0.316 µM,102% and 86.8% and 91.5%
same,"viability, T/C",compound 1 µM,105% and 89.8% and 94.6%
same,"viability, T/C",compound 3.16 µM,94.8% and 79.1% and 95.3%
same,"viability, T/C",compound 10 µM,84% and 75.4% and 81.9%
same,pIC50,curve of compound,< 5.00
[2H]c1nc(C)nc([2H])c1-c1cc(NC[C@@H](C)c2cccc3c(C(=O)NC)ccnc23)ncn1 + COc1cc2c(cc1O)CCNC21CSC2c3c(OC(C)=O)c(C)c4c(c3C(COC1=O)N1C(O)C3Cc5cc(C)c(OC)c(O)c5C(C21)N3C)OCO4,pIC50,"curve of first compound, second compound 30 pM",< 5.00
same,pIC50,"curve of first compound, second compound 94.9 pM",< 5.00
same,pIC50,"curve of first compound, second compound 0.0003 µM",> 7.50
same,pIC50,"curve of first compound, second compound 0.000949 µM",> 7.50
same,pIC50,"curve of first compound, second compound 0.003 µM",> 7.50
same,"viability, T/C","second compound 30 pM, first compound 0.0316 µM",104%
same,"viability, T/C","second compound 30 pM, first compound 0.1 µM",93.9%
same,"viability, T/C","second compound 30 pM, first compound 0.316 µM",98.7%
same,"viability, T/C","second compound 30 pM, first compound 1 µM",96.4%
same,"viability, T/C","second compound 30 pM, first compound 3.16 µM",93.4%
same,"viability, T/C","second compound 30 pM, first compound 10 µM",90.1%
same,"viability, T/C","second compound 94.9 pM, first compound 0.0316 µM",60.4%
same,"viability, T/C","second compound 94.9 pM, first compound 0.1 µM",68.6%
same,"viability, T/C","second compound 94.9 pM, first compound 0.316 µM",75.6%
same,"viability, T/C","second compound 94.9 pM, first compound 1 µM",69.9%
same,"viability, T/C","second compound 94.9 pM, first compound 3.16 µM",63.4%
same,"viability, T/C","second compound 94.9 pM, first compound 10 µM",51.7%
same,"viability, T/C","second compound 0.0003 µM, first compound 0.0316 µM",33.1%
same,"viability, T/C","second compound 0.0003 µM, first compound 0.1 µM",35.1%
same,"viability, T/C","second compound 0.0003 µM, first compound 0.316 µM",33.4%
same,"viability, T/C","second compound 0.0003 µM, first compound 1 µM",30.1%
same,"viability, T/C","second compound 0.0003 µM, first compound 3.16 µM",34.2%
same,"viability, T/C","second compound 0.0003 µM, first compound 10 µM",31.6%
same,"viability, T/C","second compound 0.000949 µM, first compound 0.0316 µM",10.5%
same,"viability, T/C","second compound 0.000949 µM, first compound 0.1 µM",4.86%
same,"viability, T/C","second compound 0.000949 µM, first compound 0.316 µM",4.58%
same,"viability, T/C","second compound 0.000949 µM, first compound 1 µM",3.72%
same,"viability, T/C","second compound 0.000949 µM, first compound 3.16 µM",2.73%
same,"viability, T/C","second compound 0.000949 µM, first compound 10 µM",1.89%
same,"viability, T/C","second compound 0.003 µM, first compound 0.0316 µM",0.1%
same,"viability, T/C","second compound 0.003 µM, first compound 0.1 µM",0.09%
same,"viability, T/C","second compound 0.003 µM, first compound 0.316 µM",0.1%
same,"viability, T/C","second compound 0.003 µM, first compound 1 µM",0.09%
same,"viability, T/C","second compound 0.003 µM, first compound 3.16 µM",0.09%
same,"viability, T/C","second compound 0.003 µM, first compound 10 µM",0.17%
Cc1sc2c(c1C)C(c1ccc(Cl)cc1)=NC(CC(=O)Nc1ccc(O)cc1)c1nnc(C)n1-2 (stereo not drawn),"viability, T/C",compound 0.00949 µM,112% and 133% and 111%
same,"viability, T/C",compound 0.03 µM,98.6% and 108% and 112%
same,"viability, T/C",compound 0.0949 µM,38.7% and 40.3% and 67.7%
same,"viability, T/C",compound 0.3 µM,4.84% and 5.32% and 10.5%
same,"viability, T/C",compound 0.949 µM,1.98% and 1.57% and 1.36%
same,"viability, T/C",compound 3 µM,1.53% and 0.84% and 1.11%
same,pIC50,curve of compound,7.12 and 7.10 and 6.87
CNCc1ccc(-c2cc(-c3nc(-c4ccc(S(=O)(=O)C(C)C)cc4)cnc3N)on2)cc1,"viability, T/C",compound 0.00949 µM,105% and 99.4% and 104%
same,"viability, T/C",compound 0.03 µM,103% and 101% and 109%
same,"viability, T/C",compound 0.0949 µM,92% and 70.1% and 88.4%
same,"viability, T/C",compound 0.3 µM,26.4% and 24.2% and 45.3%
same,"viability, T/C",compound 0.949 µM,6.64% and 6.62% and 10.9%
same,"viability, T/C",compound 3 µM,0.13% and 0.12% and 0.2%
same,pIC50,curve of compound,6.70 and 6.80 and 6.58
